Data as given in patent publication US11878074B2, “Methods of use of emulsion formulations of an NK-1 receptor antagonist” (Heron Therapeutics, Inc., priority 2016, dated 2024).

Assay: Pharmacokinetics of aprepitant emulsion, intravenous injection, plasma LC-MS/MS
Assay type: in vivo, Sprague-Dawley rats
Conditions: rat, i.v., equivalent to 14 mg/kg aprepitant, by the 3-hour time point
Experimental: Blood from all rats was collected at the appropriate time intervals and processed to plasma by centrifugation. Plasma samples were analyzed by LC-MS/MS for aprepitant and fosaprepitant, as appropriate. […] The curves indicate the initial aprepitant level reached immediately after injection of the aprepitant emulsion was almost 3 times higher than the initial aprepitant level reached immediately after injection of the fosaprepitant solution.

**Q.** For `C[C@@H](O[C@H]1OCCN(Cc2nc(O)n(P(=O)(O)O)n2)[C@H]1c1ccc(F)cc1)c1cc(C(F)(F)F)cc(C(F)(F)F)c1` [fosaprepitant], which “Plasma levels of aprepitant, emulsion versus fosaprepitant solution” value is on record?
**A.** essentially the same
